Reference: ChEMBL document CHEMBL4387764, “Structure-activity relationship study of thiazolyl-hydroxamate derivatives as selective histone deacetylase 6 inhibitors” (Bioorg Med Chem, 2019)

Experiments:
in vitro [1] = settings: human, liver microsomes
in vitro [2] = settings: human, liver microsomes; remark: listed apart in the source
in vitro [3] = settings: human, liver microsomes; remark: listed apart in the source
in vitro [4] = settings: human, liver microsomes; remark: listed apart in the source
in vitro [5] = settings: CD-1, mouse, liver microsomes
in vitro [6] = settings: CD-1, mouse, liver microsomes; remark: listed apart in the source
in vitro [7] = settings: CD-1, mouse, liver microsomes; remark: listed apart in the source
in vitro [8] = settings: CD-1, mouse, liver microsomes; remark: listed apart in the source
in vitro [9] = settings: human, liver microsomes; remark: listed apart in the source
in vitro [10] = settings: CD-1, mouse, liver microsomes; remark: listed apart in the source
in vitro [11] = settings: human, liver microsomes; remark: listed apart in the source
in vitro [12] = settings: CD-1, mouse, liver microsomes; remark: listed apart in the source

O=C(CCc1csc(/C=C/c2ccc(F)cc2)n1)NO
remaining at 0.5 h, 1 µM (in vitro [1]): 94.6%
remaining at 5 min, 1 µM (in vitro [2]): 105%
remaining at 0 h, 1 µM (in vitro [3]): 100%
remaining at 0.25 h, 1 µM (in vitro [4]): 103%
remaining at 5 min, 1 µM (in vitro [5]): 99.8%
remaining at 0.25 h, 1 µM (in vitro [6]): 68.6%
remaining at 0.5 h, 1 µM (in vitro [7]): 95.8%
remaining at 0 h, 1 µM (in vitro [8]): 100%
remaining at 0 h, 1 µM (in vitro [9]): 106%
remaining at 0 h, 1 µM (in vitro [10]): 107%
remaining at 0.5 h, 1 µM (in vitro [11]): 112%
remaining at 0.5 h, 1 µM (in vitro [12]): 25.2%
